# Test results from patent publication US20060057154A1, “Compositions for inducing of immunotolerance” (Universiteit Utrecht Holding B.V., priority 2003, published 2006).
# Experiments:
# [1] = tested on: OVA-sensitized BALB/c mice; experiment: Cellular composition of bronchoalveolar lavage fluid (eosinophil number) in mouse model of allergic asthma; type: in vivo, mouse (BALB/c)
# Experimental: (§1) Animals. Animal care and use were performed in accordance with the guidelines of the Dutch Committee of Animal Experiments. Specific pathogen-free male BALB/c mice (5 to 6 weeks old) were purchased from Charles River (Maastricht, The Netherlands) and housed in macrolon cages in a laminar flow cabinet and provided with food and water ad libitum.
# (§2) Sensitization, treatment and challenge. Mice (6 to 8 weeks old) were sensitized intraperitoneally (i.p.) on days 0 and 7 with 10 μg ovalbumin (OVA, grade V, Sigma-Aldrich) in 0.1 ml alum (Pierce, Rockford, Ill.). Two weeks after the last sensitization, the mice were divided into six groups. The sham-immunotherapy and the OVA-immunotherapy groups were treated with three s.c. injections of, respectively, 0.2 ml pyrogen-free saline (B. Braun, Melsungen, Germany) or 1 mg OVA in 0.2 ml pyrogen-free saline on alternate days. In three groups, OVA-immunotherapy was co-injected with 0.1 μg, 0.03 μg or 0.01 μg 1α,25-dihydroxyvitamin D3 (1α,25(OH)2 VitD3), a selective inhibitor of NF-κb. One group was treated with sham-immunotherapy and combined with co-injection of 0.1 μg 1α,25(OH)2 VitD3. Ten days after treatment, mice were exposed to three OVA inhalation challenges (10 mg/ml in saline) for 20 minutes every third day.
# In a second series of experiments, OVA-immunotherapy, as described above, was carried out using a sub-optimal amount of 100 μg OVA in saline for OVA-immunotherapy. OVA-immunotherapy was either given alone or in combination with 0.01 μg 1α,25(OH)2 VitD3. Sham-immunotherapy alone or in combination with 0.01 μg 1α,25(OH)2 VitD3 served as control groups.
# Analysis of the cellular composition of the bronchoalveolar lavage fluid. Bronchoalveolar lavage (BAL) was performed immediately after bleeding of the mice by lavage of the airways through a tracheal cannule five times with 1 ml saline (37° C.). Cells in the BALF were centrifuged and resuspended in cold PBS. The total number of cells in the BAL was determined using a Bürker-Türk counting chamber (Karl Hecht Assistant KG, Sondheim/Röhm, Germany). For differential BAL cell counts, cytospin preparations were made (15×g, five minutes, 4° C., Kendro Heraues Instruments, Asheville, N.C.). Next, cells were fixed and stained with Diff-Quick (Dade A. G., Düdingen, Switzerland). Per cytospin, 200 cells were counted and differentiated into mononuclear cells, eosinophils, and neutrophils by standard morphology and staining characteristics.
# Statistical analysis. All data are expressed as mean±standard error of mean (SEM). The airway dose-response curves to methacholine were statistically analyzed by a general linear model of repeated measurements followed by post-hoc comparison between groups. Data were log transformed before analysis to equalize variances in all groups. All other data were analyzed using a Student's t test (2-tailed, homosedastic). Results were considered statistically significant at the p<0.05 level.
# [2] = tested on: OVA-sensitized BALB/c mice; experiment: Airway responsiveness to methacholine in vivo (whole-body plethysmography, Penh) in mouse model of allergic asthma; set-up: species or system mouse (BALB/c)
# Experimental: as §1
# as §2, with “One group was treated with sham-immunotherapy and combined with co-injection of 0.1 μg 1α,25(OH)2 VitD3. Ten days after treatment, mice were exposed to three OVA inhalation challenges (10 mg/ml in saline) for 20 minutes every third day.” left out
# Measurement of airway responsiveness in vivo. Airway responsiveness to methacholine was measured after treatment but before OVA challenge (pre-measurement) and 24 hours after the last OVA challenge. Airway responsiveness was measured in conscious, unrestrained mice using barometric whole-body plethysmography by recording respiratory pressure curves (Buxco, EMKA Technologies, Paris, France) in response to inhaled methacholine (acetyl-β-methylcholine chloride, Sigma-Aldrich). […] Briefly, mice were placed in a whole-body chamber and basal readings were determined for three minutes. Aerosolized saline, followed by doubling concentrations of methacholine (ranging from 3.13-25 mg/ml in saline), were nebulized for three minutes, and readings were determined for three minutes after each nebulization.
# Statistical analysis. All data are expressed as mean±standard error of mean (SEM). The airway dose-response curves to methacholine were statistically analyzed by a general linear model of repeated measurements followed by post-hoc comparison between groups. […]
# [3] = tested on: OVA-sensitized BALB/c mice; experiment: OVA-specific IgE levels in serum (sandwich ELISA) in mouse model of allergic asthma; type: in vivo, mouse (BALB/c)
# Experimental: as §1, §2
# Determination of OVA-specific IgE levels in serum. From each mouse, serum was obtained after treatment but before OVA challenge (pre-measurement) by a small incision in the tail vein. After measurement of airway responsiveness in vivo, mice were sacrificed by i.p. injection of 1 ml 10% urethane in saline and were bled by cardiac puncture. […] Serum levels of OVA-specific IgE were measured by sandwich ELISA as described previously (Deurloo et al., 2001).
# Statistical analysis. All data are expressed as mean±standard error of mean (SEM). The airway dose-response curves to methacholine were statistically analyzed by a general linear model of repeated measurements followed by post-hoc comparison between groups. […] All other data were analyzed using a Student's t test (2-tailed, homosedastic). […]
# [4] = co-injection of 0.01 μg with OVA-immunotherapy (1 mg OVA), compared to OVA-immunotherapy alone
Molecule,"Number of BALF eosinophils after OVA inhalation challenge [1, 4]","Number of BALF eosinophils after OVA inhalation challenge ([1]; first series, co-injection of 0.1 μg with sham-immunotherapy)","Number of BALF eosinophils after OVA inhalation challenge ([1]; second series, co-injection of 0.01 μg with sham-immunotherapy)","Number of BALF eosinophils after OVA inhalation challenge ([1]; second series, co-injection of 0.01 μg with sub-optimal OVA-immunotherapy (100 μg OVA), compared to OVA-immunotherapy alone)",AHR to methacholine after OVA inhalation challenge ([2]; co-injection of 0.1 μg with sham-immunotherapy (saline)),"AHR to methacholine after OVA inhalation challenge ([2]; co-injection s.c. of 0.1, 0.03 or 0.01 μg (all doses used) with OVA-immunotherapy (1 mg OVA), compared to OVA-IT alone, P<0.05)","Serum levels of OVA-specific IgE after OVA inhalation challenge [3, 4]","Serum levels of OVA-specific IgE after OVA inhalation challenge ([3]; co-injection of 0.1 μg with sham-immunotherapy, compared to sham-immunotherapy alone)","Number of BALF eosinophils after OVA inhalation challenge ([1]; OVA-immunotherapy alone (1 mg OVA), compared to sham-treated mice)","Number of BALF eosinophils after OVA inhalation challenge ([1]; second series, sub-optimal OVA-immunotherapy alone (100 μg OVA), compared to sham-treated mice)","AHR to methacholine after OVA inhalation challenge ([2]; OVA-immunotherapy alone (3 s.c. injections of 1 mg OVA), compared to sham-treated mice, P<0.05)","Serum levels of OVA-specific IgE after OVA inhalation challenge ([3]; OVA-immunotherapy alone (1 mg OVA), compared to sham-treated OVA-challenged mice)"
"C=C1/C(=C\C=C2/CCC[C@]3(C)[C@@H]([C@H](C)CCCC(C)(C)O)CC[C@@H]23)C[C@@H](O)C[C@@H]1O [1α,25(OH)2 VitD3, 1α,25-dihydroxyvitamin D3]",significantly increased the reduction of BALF eosinophil numbers,did not significantly affect BAL eosinophil number,did not significantly affect BAL eosinophil number,significantly increased the reduction of BALF eosinophil numbers,did not affect AHR,significantly potentiated the reduction of AHR to methacholine,significantly increased the reduction of serum IgE levels,did not affect serum IgE levels,,,,
"OVA-immunotherapy: three s.c. injections of 1 mg (or sub-optimal 100 μg) ovalbumin (OVA, grade V) in pyrogen-free saline on alternate days",,,,,,,,,significantly reduced,significantly reduced,partially reduced,significantly reduced
